For one assay, the system named is F9 teratocarcinoma cells. The assay can be described thus: Northern blot of mRAR RNAs in F9 cells after RA treatment (densitometric scanning). Type of assay: cell-based, mouse.
Assay [1] concerns mRAR-α (mouse retinoic acid receptor α, expression vector mRAR-αO). Briefly: RA-dependent transcriptional transactivation of (TRE₃)₃-tk-CAT reporter in co-transfected HeLa cells (CAT activity). Type of assay: cell-based. Particulars: same concentrations as RA; data not shown. The text has this:
(§1) (mRAR-αO, mRAR-βO and mRAR-γO, respectively) and co-transfected into HeLa cells with a reporter plasmid, (TRE₃)₃-tk-CAT, containing a RA responsive element. […] In Fig. 3 HeLa cells were co-transfected as described in example 2 [Petkovich, M., Brand, N. J., Krust, A. & Chambon, P. Nature 330, 444-450 (1987); Brand, N., Petkovich, M., Krust, A., Chambon, P., de The, H., Marchio, A., Tiollais, P. & Dejean, A. Nature 332, 850-853 (1988)] with pSG5-based expression vectors [Green, S., Issemann, I. & Scheer, E. Nucleic Acids Res. 16, 369 (1988)] containing the entire cDNA of either mRAR-α (mRAR-αO), β (mRAR-βO) or γ (mRAR-γO), and a reporter plasmid, (TRE₃)₃-tk-CAT, carrying a synthetic RA responsive element (RARE). 24 hours after transfection, cells were fed with media containing increasing concentrations of RA as indicated (from 0 to 1x10⁻⁶ M, lanes 1-8, respectively) and harvested 48 hours post-transfection for determination of CAT activity. […] No obvious difference was observed between the dose responsiveness of mRAR-α and β, in contrast with previous results obtained with human chimeric constructs in which the C region of hRAR-α and β was replaced by the corresponding region of the human oestrogen receptor [Brand, N., Petkovich, M., Krust, A., Chambon, P., de The, H., Marchio, A., Tiollais, P. & Dejean, A. Nature 332, 850-853 (1988)]. The reason for these differences is unknown, but may be related to the use of a different and less sensitive responsive element in the present study. Direct determination of the true affinity of RAR-α, β and γ for RA must await direct binding measurements in vitro in the absence of the cellular retinoic acid binding protein.
(§2) HeLa cells (∼ 10⁶ per dish) were co-transfected with 0.5 µg of a given mRAR expression vector, 2 µg of reporter plasmid and 2 µg of pCH110 (Pharmacia, a β-galactosidase expression vector used as an internal control to normalize for variations in transfection efficiency). The total amount of transfected DNA was adjusted to 20µg by addition of carrier DNA (BSM13+). […]

The subject of assay [2] is mRAR-γ (mouse retinoic acid receptor γ, expression vector mRAR-γO). Described as above. Format: cell-based. Particulars: same concentrations as RA; data not shown.
Source text: as §1, §2

The test system of assay [3] is mRAR-β (mouse retinoic acid receptor β, expression vector mRAR-βO). The assay is described as above. The settings on record: same concentrations as RA; data not shown. Format: cell-based.
Source text: as §1, §2

Assay [4] concerns hRAR-γ (human retinoic acid receptor γ, hRAR-γD cDNA in pSG5 = hRAR-γ0). Briefly: RA-dependent transcriptional activation of (TRE₃)₃-tk-CAT reporter by hRAR-γ0 in HeLa cells (CAT activity). Format: cell-based. The settings on record: data not shown. The method, then: To test the ability of hRAR-γ to activate transcription, hRAR-γD cDNA was subcloned into the eukaryotic expression vector pSG5 [Green, S., Issemann, I. & Scheer, E. Nucleic Acids Res. 16, 369 (1988)] as described in Example 6, to give hRAR-γ0 which was co-transfected into HeLa cells along with a reporter plasmid, (TRE₃)₃-tk-CAT, which contains a synthetic RA responsive element as described in Example 6. The transfected cells were exposed (24 hour post transfection) to increasing concentrations of RA, and RA-induced activation of transcription was evaluated 48 hours after transfection by determining the CAT activity expressed from the reporter gene.
The entire 1.5 kb insert from the hRAR-γD clone was inserted into the EcoRI site of the eukaryotic expression vector pSG5 [Green, S., Issemann, I. & Scheer, E. Nucleic Acids Res. 16, 369 (1988)], to yield hRAR-γ0. 500 ng of hRAR-γ0 was transfected into HeLa cells along with 2 µg of the (TRE₃)₃-tk-CAT reporter plasmid, 2 µg of a β-galactosidase expressing plasmid pCH110 (to normalize for variations in transfection efficiency) and 15 µg of carrier DNA (BSM13+) as described [Petkovich, M., Brand, N. J., Krust, A. & Chambon, P. Nature 330, 444-450 (1987)]. 24 hours following transfection, the cells were exposed for an additional 24 hour to RA for retinol with concentrations ranging from 10⁻¹¹M to 10⁻⁶. […]

A value given as a limit tells only on which side of the number the result lay.

As for `CC1=C(/C=C/C(C)=C/C=C/C(C)=C/C(=O)O)C(C)(C)CCC1` [RA, retinoic acid], in the assay on F9 teratocarcinoma cells (Mus musculus, F9, read-out: induction of mRAR-β RNA), the fold induction at 0.33 µM was no less than 30. Further, the “decrease of mRAR-γ RNA” value with F9 teratocarcinoma cells (RA 3.3x10⁻⁷M, 24 and 48 hours) stood at 2 fold.
`CC1=C(/C=C/C(C)=C/C=C/C(C)=C/CO)C(C)(C)CCC1` [retinol]: the “transactivation efficiency compared with RA” value in assay [1], in assay [2] and in assay [3] was “much less efficient” throughout. In assay [4], the “potency as activator compared with all-trans or 13-cis retinoic acid” value is given as “much less potent activator”.
